Columns and labels:
[1] = molecular target: T1, Amine oxidase [copper-containing] 3 (Bos taurus, UniProt Q9TTK6); experiment: Inhibition of bovine plasma VAP-1 using 6-(5-Pheny1-2H-tetrazol-2-yl)hexan-1-amine as substrate preincubated with enzyme for 15 mins followed by substrate addition measured after 30 mins by UV-HPLC analysis; format: cell-free
T1 sequence (Q9TTK6 whole entry): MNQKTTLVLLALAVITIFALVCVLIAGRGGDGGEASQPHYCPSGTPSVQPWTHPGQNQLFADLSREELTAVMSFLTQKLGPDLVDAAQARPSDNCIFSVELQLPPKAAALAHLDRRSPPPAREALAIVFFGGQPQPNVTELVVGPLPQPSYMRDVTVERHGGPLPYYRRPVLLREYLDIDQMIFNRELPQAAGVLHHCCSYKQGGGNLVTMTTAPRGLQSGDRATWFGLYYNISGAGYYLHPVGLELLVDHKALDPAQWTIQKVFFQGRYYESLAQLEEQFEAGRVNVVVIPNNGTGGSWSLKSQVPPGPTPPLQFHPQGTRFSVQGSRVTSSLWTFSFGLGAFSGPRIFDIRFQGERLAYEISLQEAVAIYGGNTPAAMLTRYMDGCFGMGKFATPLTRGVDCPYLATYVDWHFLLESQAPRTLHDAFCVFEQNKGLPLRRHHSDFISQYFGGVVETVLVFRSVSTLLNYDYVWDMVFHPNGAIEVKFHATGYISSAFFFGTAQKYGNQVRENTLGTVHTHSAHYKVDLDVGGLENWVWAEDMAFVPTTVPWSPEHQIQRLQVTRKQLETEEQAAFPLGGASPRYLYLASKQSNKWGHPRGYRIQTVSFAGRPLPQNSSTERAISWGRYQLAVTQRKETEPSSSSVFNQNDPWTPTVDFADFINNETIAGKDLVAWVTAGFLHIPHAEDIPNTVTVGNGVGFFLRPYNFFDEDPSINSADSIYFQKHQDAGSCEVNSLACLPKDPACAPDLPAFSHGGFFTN

[2] = molecular target: T1, Amine oxidase [copper-containing] 3; experiment: Inhibition of bovine plasma VAP-1 using 6-(5-Pheny1-2H-tetrazol-2-yl)hexan-1-amine as substrate measured after 30 mins by UV-HPLC analysis; format: cell-free
[3] = molecular target: T2, Amine oxidase [copper-containing] 3 (Bos taurus) (UniProt Q9TTK6); experiment: Inhibition of bovine plasma VAP-1 using 6-(5-Pheny1-2H-tetrazol-2-yl)hexan-1-amine as substrate at 10 uM preincubated with enzyme for 15 mins followed by substrate addition measured after 30 mins by UV-HPLC analysis relative to control; format: cell-free; conditions: time 45.0 min
T2 sequence (whole entry): T1 sequence (Q9TTK6 whole entry)

[4] = molecular target: T2, Amine oxidase [copper-containing] 3 (Bos taurus); experiment: Inhibition of bovine plasma VAP-1 using 6-(5-Pheny1-2H-tetrazol-2-yl)hexan-1-amine as substrate at 10 uM measured after 30 mins by UV-HPLC analysis relative to control; format: cell-free
[5] = molecular target: T3, VAP-1 (amine oxidase [copper-containing] 3) (Bos taurus, UniProt Q9TTK6); experiment: Stability of compound assessed as bovine plasma VAP-1 mediated drug degradation by measuring parent compound remaining at 10 uM incubated for 15 mins by HPLC-MS analysis; format: ADME, cell-free; conditions: cattle, bovine plasma VAP-1 (amine oxidase [copper-containing] 3), read-out: Stability
T3 sequence (Q9TTK6 whole entry): T1 sequence (Q9TTK6 whole entry)

[6] = molecular target: T3, VAP-1 (amine oxidase [copper-containing] 3); experiment: Stability of compound assessed as bovine plasma VAP-1 mediated drug degradation by measuring parent compound remaining at 10 uM incubated for 30 mins by HPLC-MS analysis; format: ADME, cell-free; conditions: cattle, bovine plasma VAP-1 (amine oxidase [copper-containing] 3), read-out: Stability
[7] = molecular target: T3, VAP-1 (amine oxidase [copper-containing] 3); experiment: Stability of compound assessed as bovine plasma VAP-1 mediated drug degradation by measuring parent compound remaining at 10 uM incubated for 60 mins by HPLC-MS analysis; format: ADME, cell-free; conditions: cattle, bovine plasma VAP-1 (amine oxidase [copper-containing] 3), read-out: Stability
[8] = molecular target: T3, VAP-1 (amine oxidase [copper-containing] 3); experiment: Stability of compound assessed as bovine plasma VAP-1 mediated drug degradation by measuring parent compound remaining at 10 uM incubated for 120 mins by HPLC-MS analysis; format: ADME, cell-free; conditions: cattle, bovine plasma VAP-1 (amine oxidase [copper-containing] 3), read-out: Stability
[9] = molecular target: T4, Amine oxidase [copper-containing] 3 (Homo sapiens, UniProt Q16853); experiment: Inhibition of human plasma VAP-1 using 6-(5-Pheny1-2H-tetrazol-2-yl)hexan-1-amine as substrate preincubated with enzyme for 15 mins followed by substrate addition measured after 120 mins by UV-HPLC analysis; format: cell-free
T4 sequence (Q16853 whole entry): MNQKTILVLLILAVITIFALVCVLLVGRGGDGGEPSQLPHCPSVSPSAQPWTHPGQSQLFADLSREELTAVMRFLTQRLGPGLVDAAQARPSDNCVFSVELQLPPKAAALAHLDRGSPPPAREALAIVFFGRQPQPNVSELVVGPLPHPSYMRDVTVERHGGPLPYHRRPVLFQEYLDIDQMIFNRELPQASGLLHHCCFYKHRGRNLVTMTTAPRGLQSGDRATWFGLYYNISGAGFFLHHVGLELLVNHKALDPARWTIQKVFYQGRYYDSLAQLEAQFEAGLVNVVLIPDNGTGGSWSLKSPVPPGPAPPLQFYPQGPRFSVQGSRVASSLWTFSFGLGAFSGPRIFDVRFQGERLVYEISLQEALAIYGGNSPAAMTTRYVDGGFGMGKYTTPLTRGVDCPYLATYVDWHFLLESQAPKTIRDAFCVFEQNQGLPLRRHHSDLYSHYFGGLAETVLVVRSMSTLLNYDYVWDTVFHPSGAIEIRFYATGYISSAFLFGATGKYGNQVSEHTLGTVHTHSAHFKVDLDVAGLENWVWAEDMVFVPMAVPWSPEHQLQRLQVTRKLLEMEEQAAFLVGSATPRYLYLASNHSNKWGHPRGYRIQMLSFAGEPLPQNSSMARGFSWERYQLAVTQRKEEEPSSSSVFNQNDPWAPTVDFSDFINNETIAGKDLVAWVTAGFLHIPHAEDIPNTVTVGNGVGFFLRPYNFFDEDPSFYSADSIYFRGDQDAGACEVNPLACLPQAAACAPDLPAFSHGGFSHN

[10] = Selectivity index, ratio of IC50 for human plasma VAP-1 to IC50 for bovine plasma VAP-1
[11] = molecular target: T1, Amine oxidase [copper-containing] 3; experiment: Stability of compound assessed as bovine plasma VAP-1 mediated drug degradation by measuring formation of aldehyde metabolite at 1 to 10 uM incubated for 60 to 120 mins by HPLC-MS analysis; format: ADME, cell-free; conditions: cattle, dose lower 1 µM, time lower 60 min, dose upper 10 µM, time upper 120 min

NCC(=O)Nc1ccc(CCn2nnc(-c3ccccc3)n2)cc1
IC50 [1]: > 10 µM
IC50 [2]: > 10 µM
inhibition [3]: 18%
inhibition [4]: 20%

NCCCCCCn1nnc(-c2ccccc2)n1
remaining at 0.25 h, 10 µM [5]: < 5%
remaining at 0.5 h, 10 µM [6]: < 5%
remaining at 1 h, 10 µM [7]: < 5%
remaining at 2 h, 10 µM [8]: < 5%

CS(=O)(=O)c1ccc(-c2nnn(CCCCCCNC(=O)CN)n2)cc1
IC50 [1]: 4.5 µM
IC50 [2]: 2.3 µM
remaining at 0.25 h, 10 µM [5]: 82%
remaining at 0.5 h, 10 µM [6]: 63%
remaining at 1 h, 10 µM [7]: 23%
remaining at 2 h, 10 µM [8]: < 5%
IC50 [9]: 29 µM
Ratio IC50 [10]: 2
Stability [11]: Unstable

NCC(=O)NCCCCCCn1cnc(-c2ccccc2)c1
IC50 [1]: > 10 µM
IC50 [2]: > 10 µM
inhibition [3]: 33%
inhibition [4]: 41%

NCC(=O)NCCCCn1nnc(-c2ccccc2)n1
IC50 [1]: > 10 µM
IC50 [2]: > 10 µM
inhibition [3]: 29%
inhibition [4]: 14%

NCC(=O)NCCCCCCCn1nnc(-c2ccccc2)n1
IC50 [1]: 6.6 µM
IC50 [2]: 5.7 µM

NCC(=O)N1CCC(CCCn2nnc(-c3ccccc3)n2)CC1
IC50 [1]: > 10 µM
IC50 [2]: > 10 µM
inhibition [3]: 18%
inhibition [4]: 19%

NCC(=O)NCc1ccccc1Cn1nnc(-c2ccccc2)n1
IC50 [1]: > 10 µM
IC50 [2]: > 10 µM
inhibition [3]: 18%
inhibition [4]: 30%
remaining at 0.25 h, 10 µM [5]: 91%
remaining at 0.5 h, 10 µM [6]: 86%
remaining at 1 h, 10 µM [7]: 84%
remaining at 2 h, 10 µM [8]: 56%

NCC(=O)NCCCCCCn1ncc(-c2ccccc2)n1
IC50 [1]: 7 µM
IC50 [2]: 6.2 µM

NCC(=O)NCc1ccc(Cn2nnc(-c3ccccc3)n2)cc1
IC50 [1]: 5.9 µM
IC50 [2]: 9.1 µM
remaining at 0.25 h, 10 µM [5]: 89%
remaining at 0.5 h, 10 µM [6]: 82%
remaining at 1 h, 10 µM [7]: 69%
remaining at 2 h, 10 µM [8]: 45%

Cc1ccc(-c2nnn(CCCCCCNC(=O)CN)n2)cc1
IC50 [1]: 5.1 µM
IC50 [2]: 4.7 µM

NCC(=O)NCCCn1nnc(-c2ccccc2)n1
IC50 [1]: > 10 µM
IC50 [2]: > 10 µM
inhibition [3]: 29%
inhibition [4]: 13%

NCC(=O)NCCCCCCn1nnc(-c2cccnc2)n1
IC50 [1]: > 10 µM
IC50 [2]: > 10 µM
inhibition [3]: 45%
inhibition [4]: 44%

NCC(=O)NCCCCCCn1nnc(-c2ccc(Cl)cc2)n1
IC50 [1]: 4.3 µM
IC50 [2]: 3.5 µM

NCC(=O)NCCCCCn1nnc(-c2ccccc2)n1
IC50 [1]: > 10 µM
IC50 [2]: 9.4 µM
inhibition [3]: 45%

NCC(=O)NCCCCCCn1nnc(-c2ccc(N3CCOCC3)cc2)n1
IC50 [1]: 5.6 µM
IC50 [2]: 7.6 µM

COC(=O)c1ccc(-c2nnn(CCCCCCNC(=O)CN)n2)cc1
IC50 [1]: 6.1 µM
IC50 [2]: 7.3 µM

— ChEMBL document CHEMBL5523671, “ω-(5-Phenyl-2H-tetrazol-2-yl)alkyl-substituted glycine amides and related compounds as inhibitors of the amine oxidase vascular adhesion protein-1 (VAP-1)” (Bioorg Med Chem, 2024)
